Measurements taken from ChEMBL document CHEMBL3856195, “2,3,4-Trihydroxybenzyl-hydrazide analogues as novel potent coxsackievirus B3 3C protease inhibitors” (Eur J Med Chem, 2016).
Activity calls are given as the source filed them. The rule behind the calls is not given here.

Assays:
[1] = molecular target: T1, Genome polyprotein (Coxsackievirus B3 (strain Nancy), UniProt P03313); assay: Inhibition of recombinant Coxsackievirus B3 3C protease expressed in Escherichia coli BL21 (DE3) preincubated for 5 mins followed by addition of NMA-EALFQGPPVK-DNP-rrr-NH2 as substrate measured up to 2 hrs by FRET-based enzyme assay
T1 sequence (P03313 1541-1723 limits assumed): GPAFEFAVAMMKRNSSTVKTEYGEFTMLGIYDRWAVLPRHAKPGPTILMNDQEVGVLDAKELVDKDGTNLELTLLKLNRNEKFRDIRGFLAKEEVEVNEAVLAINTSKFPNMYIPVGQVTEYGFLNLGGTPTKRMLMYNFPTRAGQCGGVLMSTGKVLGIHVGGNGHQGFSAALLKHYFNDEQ

[2] = molecular target: T1, Genome polyprotein; assay: Inhibition of recombinant Coxsackievirus B3 3C protease expressed in Escherichia coli BL21 (DE3) preincubated for 5 mins followed by addition of NMA-EALFQGPPVK-DNP-rrr-NH2 as substrate measured every 10 mins for 2 hrs by FRET-based enzyme assay
[3] = Cytotoxicity against human HeLa cells assessed as reduction in cell viability at 10 and 100 uM by CCK8 assay; assay type: toxicity, cell-based
[4] = Apparent permeability in MDCK cells at 50 uM and measured after 30 mins by LC-MS/MS analysis; assay type: ADME, cell-based, Canis lupus familiaris; settings: dog
[5] = test system: Coxsackievirus B3; assay: Antiviral activity against Coxsackievirus B3 infected in human HeLa cells at 10 uM measured after 20 to 24 hrs by CCK8 assay; assay type: functional; settings: Enterovirus B
[6] = molecular target: Genome polyprotein (Coxsackievirus B3 (strain Nancy)) (UniProt P03313); assay: Non-competitive inhibition of recombinant Coxsackievirus B3 3C protease expressed in Escherichia coli BL21 (DE3) preincubated with protein followed by addition of NMA-EALFQGPPVK-DNP-rrr-NH2 as substrate measured every 5 mins for 2 hrs by Michaelis-Menten plot analysis
Sequence of Genome polyprotein (Coxsackievirus B3 (strain Nancy)) (P03313 whole entry): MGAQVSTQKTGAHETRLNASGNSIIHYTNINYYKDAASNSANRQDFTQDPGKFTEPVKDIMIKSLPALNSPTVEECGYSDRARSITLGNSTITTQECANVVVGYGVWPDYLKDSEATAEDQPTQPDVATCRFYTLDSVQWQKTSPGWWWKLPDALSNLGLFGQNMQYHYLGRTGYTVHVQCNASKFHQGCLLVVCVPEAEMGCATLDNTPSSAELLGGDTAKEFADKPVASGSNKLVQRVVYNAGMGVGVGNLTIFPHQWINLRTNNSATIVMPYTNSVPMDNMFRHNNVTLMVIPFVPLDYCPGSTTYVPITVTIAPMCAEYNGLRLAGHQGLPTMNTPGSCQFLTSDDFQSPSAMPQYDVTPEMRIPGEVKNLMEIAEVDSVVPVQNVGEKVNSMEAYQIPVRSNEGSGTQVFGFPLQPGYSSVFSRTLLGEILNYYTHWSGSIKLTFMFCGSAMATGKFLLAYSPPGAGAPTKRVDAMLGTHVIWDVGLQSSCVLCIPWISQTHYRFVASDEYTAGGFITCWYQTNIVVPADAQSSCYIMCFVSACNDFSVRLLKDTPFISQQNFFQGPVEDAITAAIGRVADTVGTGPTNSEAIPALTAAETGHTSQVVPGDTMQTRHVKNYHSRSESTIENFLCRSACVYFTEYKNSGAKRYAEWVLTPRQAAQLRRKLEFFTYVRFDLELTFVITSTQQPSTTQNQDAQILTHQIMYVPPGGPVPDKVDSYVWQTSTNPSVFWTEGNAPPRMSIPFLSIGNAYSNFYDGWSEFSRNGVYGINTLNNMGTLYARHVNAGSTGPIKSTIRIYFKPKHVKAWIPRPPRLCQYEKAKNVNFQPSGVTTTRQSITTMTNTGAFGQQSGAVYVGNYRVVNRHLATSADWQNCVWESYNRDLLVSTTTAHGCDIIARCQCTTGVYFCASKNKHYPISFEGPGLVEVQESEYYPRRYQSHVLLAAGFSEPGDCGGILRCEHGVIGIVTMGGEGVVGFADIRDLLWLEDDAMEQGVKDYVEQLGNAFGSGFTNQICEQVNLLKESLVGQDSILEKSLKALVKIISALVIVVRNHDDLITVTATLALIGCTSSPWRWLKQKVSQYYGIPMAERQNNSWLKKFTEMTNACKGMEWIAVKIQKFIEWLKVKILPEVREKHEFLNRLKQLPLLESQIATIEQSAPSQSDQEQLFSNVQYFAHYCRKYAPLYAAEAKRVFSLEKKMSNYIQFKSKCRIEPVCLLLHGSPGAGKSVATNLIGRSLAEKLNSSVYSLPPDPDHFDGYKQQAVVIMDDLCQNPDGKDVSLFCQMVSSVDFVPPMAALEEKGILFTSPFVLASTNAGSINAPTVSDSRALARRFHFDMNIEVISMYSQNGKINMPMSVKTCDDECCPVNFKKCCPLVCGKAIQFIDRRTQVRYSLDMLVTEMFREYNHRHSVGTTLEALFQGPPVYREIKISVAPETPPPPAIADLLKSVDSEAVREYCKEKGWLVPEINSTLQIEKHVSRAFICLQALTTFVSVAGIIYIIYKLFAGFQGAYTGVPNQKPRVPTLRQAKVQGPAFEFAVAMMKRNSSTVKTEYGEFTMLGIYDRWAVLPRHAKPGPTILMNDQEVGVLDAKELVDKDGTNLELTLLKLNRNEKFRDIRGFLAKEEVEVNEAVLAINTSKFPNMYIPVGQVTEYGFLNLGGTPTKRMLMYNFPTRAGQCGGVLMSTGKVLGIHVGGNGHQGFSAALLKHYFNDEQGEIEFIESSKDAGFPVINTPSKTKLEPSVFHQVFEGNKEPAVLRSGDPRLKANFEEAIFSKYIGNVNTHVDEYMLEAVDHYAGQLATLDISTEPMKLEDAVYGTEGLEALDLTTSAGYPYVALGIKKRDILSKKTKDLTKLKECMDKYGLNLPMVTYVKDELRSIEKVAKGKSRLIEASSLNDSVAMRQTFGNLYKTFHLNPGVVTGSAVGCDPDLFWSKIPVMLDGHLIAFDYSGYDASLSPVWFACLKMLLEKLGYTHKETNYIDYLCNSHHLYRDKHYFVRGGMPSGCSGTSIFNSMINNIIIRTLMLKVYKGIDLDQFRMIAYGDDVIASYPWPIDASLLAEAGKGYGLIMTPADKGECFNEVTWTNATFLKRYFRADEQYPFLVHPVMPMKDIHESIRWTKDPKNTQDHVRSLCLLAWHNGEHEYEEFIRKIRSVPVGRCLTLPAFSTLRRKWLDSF

[7] = molecular target: T1, Genome polyprotein; assay: Competitive inhibition of recombinant Coxsackievirus B3 3C protease expressed in Escherichia coli BL21 (DE3) preincubated with protein followed by addition of NMA-EALFQGPPVK-DNP-rrr-NH2 as substrate measured every 5 mins for 2 hrs by Dixon plot analysis
[8] = molecular target: Genome polyprotein (Coxsackievirus B3 (strain Nancy)) (UniProt P03313); assay: Mixed-type inhibition of recombinant Coxsackievirus B3 3C protease expressed in Escherichia coli BL21 (DE3) preincubated with protein followed by addition of NMA-EALFQGPPVK-DNP-rrr-NH2 as substrate measured every 5 mins for 2 hrs by Lineweaver-Burk plot analysis
[9] = molecular target: T1, Genome polyprotein; assay: Inhibition of recombinant Coxsackievirus B3 C-terminal 6His-tagged 3C protease expressed in Escherichia coli BL21 preincubated for 20 mins followed by addition of fluorogenic peptide as substrate by Cheng-Prusoff equation analysis

Row | Structure (SMILES) | IC50 [1] | other results
1 | O=C(N/N=C/c1ccc(O)cc1)c1ccccc1 | > 50000 nM | 
2 | O=C(CCCc1ccc(O)cc1)N/N=C/c1ccc(O)c(O)c1O | 160 nM | 
3 | CS(=O)(=O)c1ccc(C(=O)N/N=C/c2ccc(O)c(O)c2O)cc1 | 890 nM | 
4 | O=C(N/N=C/c1ccc(O)cc1O)c1ccccc1 | > 50000 nM | 
5 | CC(C)(C)OC(=O)NC(Cc1ccc(O)cc1)C(=O)N/N=C/c1ccc(O)c(O)c1O (stereo not drawn) | 540 nM | 
6 | CC(C)(C)OC(=O)NC(Cc1ccc(F)cc1)C(=O)NNCc1ccc(O)c(O)c1O (stereo not drawn) | 780 nM | 
7 | NC(CO)C(=O)N/N=C/c1ccc(O)c(O)c1O (stereo not drawn) |  | IC50 [2]: 2700 nM
8 | O=C(N/N=C/c1cc(O)ccc1O)c1ccccc1 | 5510 nM | 
9 | O=C(NNCc1ccc(O)c(O)c1O)c1ccc(Br)cc1 | 210 nM | 
10 | Cc1cc(C(=O)N[C@H](C(=O)N[C@@H](Cc2ccc(F)cc2)C(=O)NNCc2ccc(O)c(O)c2O)C(C)C)no1 | 230 nM | 
11 | CC(C)(C)OC(=O)NC(Cc1ccc(O)cc1)C(=O)NNCc1ccc(O)c(O)c1O (stereo not drawn) | 270 nM | 
12 | O=C(N/N=C/c1cccc(O)c1)c1ccccc1 | > 50000 nM | 
13 | O=C(CCc1ccc(F)cc1)N/N=C/c1ccc(O)c(O)c1O | 580 nM | 
14 | O=C(Cc1ccc(F)cc1)NNCc1ccc(O)c(O)c1O | 340 nM | 
15 | O=C(N/N=C/c1ccc(O)c(O)c1O)c1ccc(Br)cc1 | 460 nM | 
16 | O=C(N/N=C/c1ccccc1)c1ccccc1 | > 50000 nM | 
17 | O=C(N/N=C/c1ccccc1O)c1ccccc1 [SALICYLALDEHYDE BENZOYL HYDRAZONE] | > 50000 nM | 
18 | O=C(CCCCc1ccc(O)cc1)N/N=C/c1ccc(O)c(O)c1O | 110 nM | Activity [3]: Non-Toxic; Papp at 0.5 h, 50 µM [4]: 11 ×10⁻⁶ cm/s
19 | O=C(CCCCc1ccc(F)cc1)N/N=C/c1ccc(O)c(O)c1O | 470 nM | 
20 | O=C(CCc1ccc(O)cc1)N/N=C/c1ccc(O)c(O)c1O | 120 nM | 
21 | O=C(N/N=C/c1ccc(O)c(O)c1)c1ccccc1 | > 50000 nM | 

Row | Structure (SMILES) | IC50 [1] | other results
22 | O=C(CCCc1ccc(O)cc1)NNCc1ccc(O)c(O)c1O | 100 nM | 
23 | O=C(CCCCc1ccccc1)N/N=C/c1ccc(O)c(O)c1O | 440 nM | 
24 | O=C(NNCc1ccc(O)c(O)c1O)c1ccc(O)cc1 | 170 nM | Activity [3]: Non-Toxic
25 | O=C(Cc1ccc(O)cc1)NNCc1ccc(O)c(O)c1O | 110 nM | 
26 | O=C(NNCc1ccc(O)c(O)c1O)c1ccc(Cl)cc1 | 430 nM | 
27 | O=C(N/N=C/c1ccc(O)c(O)c1O)c1ccc(Cl)cc1 | 590 nM | 
28 | O=C(CCCc1ccc(F)cc1)N/N=C/c1ccc(O)c(O)c1O | 640 nM | 
29 | O=C(CCCc1ccccc1)NNCc1ccc(O)c(O)c1O | 340 nM | 
30 | O=C(N/N=C/c1ccc(O)c(O)c1O)c1ccc(F)cc1 | 870 nM | 
31 | O=C(CCc1ccc(O)cc1)NNCc1ccc(O)c(O)c1O | 80 nM | 
32 | O=C(CCCCc1ccc(F)cc1)NNCc1ccc(O)c(O)c1O | 230 nM | 
33 | O=C(Cc1ccc(O)cc1)N/N=C/c1ccc(O)c(O)c1O | 180 nM | 
34 | CS(=O)(=O)c1cccc(/C=N/NC(=O)c2ccccc2)c1 | > 50000 nM | 
35 | CC(C)(C)OC(=O)NC(Cc1ccc(F)cc1)C(=O)N/N=C/c1ccc(O)c(O)c1O (stereo not drawn) | 890 nM | 
36 | O=C(N/N=C/c1cccc(O)c1O)c1ccccc1 | > 50000 nM | 
37 | O=C(CCc1ccc(F)cc1)NNCc1ccc(O)c(O)c1O | 200 nM | 
38 | CS(=O)(=O)c1ccc(C(=O)NNCc2ccc(O)c(O)c2O)cc1 | 770 nM | 
39 | CCCCC(=O)Oc1c(O)ccc(/C=N/NC(=O)c2ccc(O)cc2)c1O | 1210 nM | Activity [3]: Non-Toxic; inhibition at 10 µM [5]: 42%
40 | O=C(NNCc1ccc(O)c(O)c1O)c1ccc(F)cc1 | 650 nM | 
41 | O=C(CCCCc1ccc(O)cc1)NNCc1ccc(O)c(O)c1O | 70 nM | Activity [3]: Non-Toxic; inhibition [6]: Dose-dependent effect; Ki [7]: 324 nM; inhibition [8]: Active
42 | O=C(CCCc1ccccc1)N/N=C/c1ccc(O)c(O)c1O | 710 nM | 

Row | Structure (SMILES) | IC50 [1] | other results
43 | NC(CO)C(=O)NNCc1ccc(O)c(O)c1O (stereo not drawn) [BENSERAZIDE] |  | IC50 [2]: 2400 nM
44 | Cc1cc(C(=O)N[C@H](C(=O)N[C@@H](Cc2ccc(F)cc2)C(=O)N/N=C/c2ccc(O)c(O)c2O)C(C)C)no1 | 610 nM | 
45 | O=C(N/N=C/c1c(O)cc(O)cc1O)c1ccccc1 | 1070 nM | 
46 | O=C(CCCc1ccc(F)cc1)NNCc1ccc(O)c(O)c1O | 400 nM | 
47 | CCCCC(=O)Oc1c(O)ccc(CNNC(=O)CCCCc2ccc(O)cc2)c1O | 870 nM | Activity [3]: Non-Toxic; inhibition at 10 µM [5]: 43%
48 | O=C(N/N=C/c1cc(O)cc(O)c1)c1ccccc1 | > 50000 nM | 
49 | O=C(CCc1ccccc1)NNCc1ccc(O)c(O)c1O | 320 nM | 
50 | O=C(Cc1ccc(F)cc1)N/N=C/c1ccc(O)c(O)c1O | 660 nM | 
51 | CS(=O)(=O)c1ccc(/C=N/NC(=O)c2ccccc2)cc1 | > 50000 nM | 
52 | O=C(CCCCc1ccccc1)NNCc1ccc(O)c(O)c1O | 190 nM | 
53 | CCCCC(=O)Oc1c(O)ccc(/C=N/NC(=O)CCCCc2ccc(O)cc2)c1O | 970 nM | Activity [3]: Non-Toxic; inhibition at 10 µM [5]: 62%; Papp at 0.5 h, 50 µM [4]: 25 ×10⁻⁶ cm/s
54 | O=C(NNCc1c(O)cc(O)cc1O)c1ccccc1 | 770 nM | 
55 | CCCCC(=O)Oc1c(O)ccc(CNNC(=O)c2ccc(O)cc2)c1O | 1020 nM | inhibition at 10 µM [5]: 38%
56 | CC(=O)/C=C/[C@H](C[C@@H]1CNCC1=O)NC(=O)[C@H](CC(C)C)NC(=O)[C@H](CNC(=O)C(C)(C)C)NC(=O)OCc1ccccc1 |  | Ki [9]: 800 nM
57 | O=C(CCc1ccccc1)N/N=C/c1ccc(O)c(O)c1O | 690 nM | 
58 | O=C(N/N=C/c1ccc(O)c(O)c1O)c1ccc(O)cc1 | 320 nM | Activity [3]: Non-Toxic
59 | O=C(Cc1ccccc1)N/N=C/c1ccc(O)c(O)c1O | 750 nM | 
60 | O=C(Cc1ccccc1)NNCc1ccc(O)c(O)c1O | 410 nM | 
61 | O=C(N/N=C/c1ccc(O)c(O)c1O)c1ccccc1 | 970 nM | 
62 | O=C(NNCc1ccc(O)c(O)c1O)c1ccccc1 | 650 nM | 
